Measurements as given in publication PMC4019989 (Clinical cancer research : an official journal of the …, 2009).

Tested on: patients with relapsed or refractory hematologic malignancies
Experiment: Phase 1 dose escalation: adverse events, DLT, MTD
Type: in vivo
[1] = All patients (N = 29), all dose cohorts

With `CC(C)C[C@H](NC(=O)[C@H](CCc1ccccc1)NC(=O)CN1CCOCC1)C(=O)N[C@@H](Cc1ccccc1)C(=O)N[C@@H](CC(C)C)C(=O)[C@@]1(C)CO1` [carfilzomib] the “Grade 3 and 4 adverse events: ALT increased, Grades 3-4” value (All patients (N = 29), Table 4) was 1 (3) n (%), the “Grade 3 and 4 adverse events: AST increased, Grade 3” value (All patients (N = 29), Table 4) was 1 (3) n (%) and the “Grade 3 and 4 adverse events: AST increased, Grade 4” value (All patients (N = 29), Table 4) was 0 (0) n (%). For the same compound, the “Grade 3 and 4 adverse events: AST increased, Grades 3-4” value (All patients (N = 29), Table 4) was 1 (3) n (%), the “Grade 3 and 4 adverse events: Abdominal pain, Grade 3” value (All patients (N = 29), Table 4) was 1 (3) n (%) and the “Grade 3 and 4 adverse events: Abdominal pain, Grade 4” value (All patients (N = 29), Table 4) was 0 (0) n (%). For the same compound, the “Grade 3 and 4 adverse events: Abdominal pain, Grades 3-4” value (All patients (N = 29), Table 4) was 1 (3) n (%), the “Grade 3 and 4 adverse events: Anemia, Grades 3-4” value (All patients (N = 29), Table 4) was 1 (3) n (%) and the “Grade 3 and 4 adverse events: Any, Grade 3” value (All patients (N = 29), Table 4) was 11 (38) n (%). The “Grade 3 and 4 adverse events: Any, Grades 3-4” value (All patients (N = 29), Table 4) was 14 (48) n (%), the “Grade 3 and 4 adverse events: Chills, Grade 3” value (All patients (N = 29), Table 4) was 1 (3) n (%) and the “Grade 3 and 4 adverse events: Chills, Grade 4” value (All patients (N = 29), Table 4) was 0 (0) n (%). The “Grade 3 and 4 adverse events: Chills, Grades 3-4” value (All patients (N = 29), Table 4) was 1 (3) n (%), the “Grade 3 and 4 adverse events: Disease progression, Grade 3” value (All patients (N = 29), Table 4) was 1 (3) n (%) and the “Grade 3 and 4 adverse events: Disease progression, Grade 4” value (All patients (N = 29), Table 4) was 0 (0) n (%). For the same compound, the “Grade 3 and 4 adverse events: Disease progression, Grades 3-4” value (All patients (N = 29), Table 4) was 1 (3) n (%), the “Grade 3 and 4 adverse events: Hyperglycemia, Grade 3” value (All patients (N = 29), Table 4) was 1 (3) n (%) and the “Grade 3 and 4 adverse events: Hyperglycemia, Grade 4” value (All patients (N = 29), Table 4) was 0 (0) n (%). For the same compound, the “Grade 3 and 4 adverse events: Hyperglycemia, Grades 3-4” value (All patients (N = 29), Table 4) was 1 (3) n (%), the “Grade 3 and 4 adverse events: Neutropenia, Grade 3” value (All patients (N = 29), Table 4) was 1 (3) n (%) and the “Grade 3 and 4 adverse events: Neutropenia, Grade 4” value (All patients (N = 29), Table 4) was 0 (0) n (%). For the same compound, the “Grade 3 and 4 adverse events: Neutropenia, Grades 3-4” value (All patients (N = 29), Table 4) was 1 (3) n (%), the “Grade 3 and 4 adverse events: Pain, Grade 3” value (All patients (N = 29), Table 4) was 1 (3) n (%) and the “Grade 3 and 4 adverse events: Pain, Grade 4” value (All patients (N = 29), Table 4) was 0 (0) n (%). The “Grade 3 and 4 adverse events: Pain, Grades 3-4” value (All patients (N = 29), Table 4) was 1 (3) n (%), the “Grade 3 and 4 adverse events: Skin infection, Grade 3” value (All patients (N = 29), Table 4) was 1 (3) n (%) and the “Grade 3 and 4 adverse events: Skin infection, Grade 4” value (All patients (N = 29), Table 4) was 0 (0) n (%). For the same compound, the “Grade 3 and 4 adverse events: Skin infection, Grades 3-4” value (All patients (N = 29), Table 4) was 1 (3) n (%), the “Grade 3 and 4 adverse events: Syncope, Grade 3” value (All patients (N = 29), Table 4) was 1 (3) n (%) and the “Grade 3 and 4 adverse events: Syncope, Grade 4” value (All patients (N = 29), Table 4) was 0 (0) n (%). For the same compound, the “Grade 3 and 4 adverse events: Syncope, Grades 3-4” value (All patients (N = 29), Table 4) was 1 (3) n (%), the “Grade 3 and 4 adverse events: Thrombocytopenia, Grade 3” value (All patients (N = 29), Table 4) was 0 (0) n (%) and the “Adverse event Any, All Grades” value [1] was 29 (100) n (%). For the same compound, the “Adverse event Any, Grade 1” value [1] was 4 (14) n (%), the “Adverse event Any, Grade 2” value [1] was 11 (38) n (%) and the “Adverse event Any, Grade 3” value [1] was 11 (38) n (%). The “Adverse event Any, Grade 4” value [1] was 3 (10) n (%), the “Adverse event Constipation, All Grades” value [1] was 6 (21) n (%) and the “Adverse event Constipation, Grade 1” value [1] was 5 (17) n (%). The “Adverse event Constipation, Grade 2” value [1] was 1 (3) n (%), the “Adverse event Constipation, Grade 3” value [1] was 0 (0) n (%) and the “Adverse event Constipation, Grade 4” value [1] was 0 (0) n (%). For the same compound, the “Adverse event Cough, All Grades” value [1] was 8 (28) n (%), the “Adverse event Cough, Grade 1” value [1] was 8 (28) n (%) and the “Adverse event Cough, Grade 2” value [1] was 0 (0) n (%). The “Adverse event Cough, Grade 3” value [1] was 0 (0) n (%), the “Adverse event Cough, Grade 4” value [1] was 0 (0) n (%) and the “Adverse event Diarrhea, All Grades” value [1] was 10 (35) n (%). The “Adverse event Diarrhea, Grade 1” value [1] was 7 (24) n (%), the “Adverse event Diarrhea, Grade 2” value [1] was 3 (10) n (%) and the “Adverse event Diarrhea, Grade 3” value [1] was 0 (0) n (%). For the same compound, the “Adverse event Diarrhea, Grade 4” value [1] was 0 (0) n (%), the “Adverse event Pyrexia, Grade 1” value [1] was 5 (17) n (%) and the “Adverse event Pyrexia, Grade 2” value [1] was 3 (10) n (%). For the same compound, the “Adverse event Pyrexia, Grade 3” value [1] was 0 (0) n (%), the “Adverse event Pyrexia, Grade 4” value [1] was 0 (0) n (%) and the “Patients who discontinued study treatment due to adverse events” value (Four of the 29 patients) was 14%. The “Patients with grade 2 anemia” value (across all cohorts) was “three”, the Incidence of anemia (across all cohorts, five patients, doses 1.2 to 15 mg/m^2) was 17% and the “Adverse event Dyspnea, All Grades” value (human, in vivo) was 8 (28) n (%). The “Adverse event Dyspnea, Grade 1” value (human, in vivo) was 6 (21) n (%), the “Adverse event Dyspnea, Grade 2” value (human, in vivo) was 0 (0) n (%) and the “Adverse event Dyspnea, Grade 3” value (human, in vivo) was 1 (3) n (%). The “Adverse event Dyspnea, Grade 4” value (human, in vivo) was 1 (3) n (%), the “Adverse event Exertional dyspnea, All Grades” value (human, in vivo) was 6 (21) n (%) and the “Adverse event Exertional dyspnea, Grade 1” value (human, in vivo) was 6 (21) n (%). For the same compound, the “Adverse event Exertional dyspnea, Grade 2” value (human, in vivo) was 0 (0) n (%), the “Adverse event Exertional dyspnea, Grade 3” value (human, in vivo) was 0 (0) n (%) and the “Adverse event Exertional dyspnea, Grade 4” value (human, in vivo) was 0 (0) n (%).
